Measurements taken from patent publication US9119884B2, “LLP2A-bisphosphonate conjugates for osteoporosis treatment” (The Regents of the University of California, priority 2010, dated 2015).

Experiments:
[1] = tested on: 10-week-old ovariectomized (OVX) mice; experiment: Ovariectomized (OVX) mouse model; type: in vivo; conditions: for maximum stress: femur three-point bending; for maximum stress / cortical bone thickness: single IV injection of conjugate or four weeks of PTH
Excerpt: FIG. 21 depicts histomorphometric analyses of the 5th lumbar vertebral bodies after LLP2A-Ale treatment of 10-week-old ovariectomized (OVX) mice, showing increases in osteoblast numbers, activities and bone formation rate/bone surface (BFR/BS) post-treatment. Analyses included trabecular bone area (%), osteoblast surface (Ob/BS), mineralizing surface (MS/BS) activities and BFR/BS (P<0.05).
Representative fluorescent images from the trabecular bone at the 5th LVB (Top panel: white arrowheads illustrate osteoblasts; Bottom panel: yellow arrows illustrate double labeled trabecular bone surfaces).
FIG. 23 depicts histomorphometry analyses of the right mid-femurs included bone formation at the endosteal (Ec) or periosteal (Ps.) bone surfaces, and cortical bone thickness of 10-week-old ovariectomized (OVX) mice. […] Three-point bending was performed on left femurs to obtain maximum stress of the femurs.
Short yellow arrows illustrated double labeled endocortical bone surfaces. (a, p<0.05 versus Sham; b, P<0.05 vs. OVX+PBS, c, P<0.05 vs. OVX+LLP2A; d, P<0.05 vs. OVX+Ale. Data are represented as Mean±SD).

[2] = tested on: C57BL/6 mice; experiment: Guiding GFP-labeled mouse MSCs to bone; type: in vivo; conditions: for osteocalcin levels: 0.9 nmol/mouse I.P. one hour after GFP-MSC I.V.
Experimental: LLP2A-Ale or LLP2A-Ale (1) were dissolved in 0.9% normal saline and injected I.P. to the mice one hour after MSC at a final solution of 0.9 nmol/mouse. Mice were sacrificed either at 3 days or 3 weeks. Osteocalcin, a bone formation marker, was measured at both 3 days and 3 weeks post-treatments. The lumbar vertebral bodies from the 3-day treatment groups were frozen and sectioned with cryostat. The sections were then stained with anti-GFP antibody. The transplanted MSCs were stained in brown.

[3] = tested on: NOD/SCID/MPSVII mice; experiment: huMSC transplantation with LLP2A-Ale in immunodeficient mice; type: in vivo, mouse; conditions: vertebral body, three weeks after single injection of huMSC with or without compound
Excerpt: Human MSCs (huMSCs) were obtained and injected together with LLP2A-Ale to immunodeficient mice, NOD/SCID/mucopolysaccharidosis type VII (MPSVII). This mouse strain lacked the β-glucuronidase (GUSB) enzyme. The donor cells could be easily detected using biochemical detection of β-glucuronidase (See Meyerrose, T. E., et al., Stem Cells, 2007. 25(1): p. 220-7; Meyerrose, T. E., et al., Stem Cells, 2008. 26(7): p. 1713-22). At three-month of age, the mice received a single intravenous (i.v.) injection of either vehicle (100 μl PBS/mouse), huMSCs (5×10^5/100 μl/PBS/mouse), huMSCs+LLP2A (5 nM/mouse) or huMSCs+LLP2A-Ale (500 ng/mouse; total compound weight 3.5 μg, with alendronate concentration of 500 ng/mouse). The alendronate dose we used for the study was approximately one-fifth of the therapeutic dose for the treatment of osteoporosis (See Colon-Emeric, C. S., JAMA, 2006, 296(24): p. 2968-9; Ma, Y. L., et al., Endocrinology, 2003. 144(5): p. 2008-15). […] HuMSC, as shown by GUSB+red stain, were only present at the trabecular bone surface in the LLP2A-Ale-treated group (lower panel). There was no demonstrable GUSB activity in the lung, liver, kidney and LVB that received PBS (top panels) or huMSCs (middle panel). Cancellous bone mass in the vertebral body was—more than 40% higher in the group treated with MSC+LLP2A-Ale (cancellous bone volume, BV/TV 13.9±2.2%) compared to PBS (BV/TV 9.4±1.7%), MSC (BV/TV 10.2±1.9%) or MSC+LLP2A (BV/TV 10.5±0.5%) controls three weeks after a single injection of huMSC and LLP2A-Ale.
In FIG. 8, Three-month-old MSPVII mice received a single intravenous injection of either of PBS, huMSC (5×10^5) or huMSC+LLP2A or LLP2A-Ale. The mice were sacrificed 24 hours later. Following sacrifice, small portions of organ including lumbar vertebral bodies (LVB) were harvested and frozen in Optimal Cutting Temperature embedding media. The sections were stained using naphthol-AS-BI-β-Dglucuronide (GUSB) as a substrate. Representative sections from lung, liver, kidney and lumbar vertebral (LVB) trabecular bone regions were presented. […] Isolated GUSB-positive cells were also observed within bone marrow of the LVB in […] group.
The NOD-SCID MPSVII strain was the result of extensive backcrossing of the mutant GUSB allele from the B6.C-H-2^bm1/ByBirgus^mps/+ mouse onto the NOD/LtSz-scid background. Animals were bred and maintained at the Stem Cell Department of the UC Davis Medical Center under approved animal care protocols. Affected animals were generated by breeding mice heterozygous for the MPSVII mutation. Homozygous GUSB-deficient pups were identified at birth by biochemical analysis of toe tissue.
Serum levels of the amino terminal propeptide of type 1 procollagen (P1NP), osteocalcin and C-terminal telopeptides of type I collagen (CTX-I) were measured using mouse sandwich ELISA kits from Biomedical Technologies (Stroughton, Mass.) or Immunodiagnostic System (Fountain Hills, Ariz.). The manufacturer's protocols were followed and all samples were assayed in duplicate. A standard curve was generated from each kit and the absolute concentrations were extrapolated from the standard curve. The coefficients of variations (CVs) for inter-assay and intra-assay measurements were less than 10% for all assays and are similar to the manufacturer's references (Yao, W., et al., Arthritis Rheum, 2008, 58(6): p. 1674-86; Yao, W., et al., Arthritis Rheum, 2008, 58(11): p. 3485-3497).
After fixation in 4% paraformaldehyde, the right distal femurs, mid-femurs and the 5th lumbar vertebral bodies were dehydrated in graded concentrations of ethanol and xylene and embedded un-decalcified in methyl methacrylate. The frontal sections (8 μm thick) were cut using a vertical bed microtome (Leica/Jung 2265) and affixed to slides coated with a 2% gelatin solution. Unstained 8-μm-thick sections were used for assessing fluorochrome labeling and dynamic changes in bone. […]

[4] = tested on: 129SvJ mice; type: in vivo, mouse
[5] = tested on: bone marrow cells undergoing osteogenic differentiation; experiment: Rainbow bead cell-binding assay; type: cell-based, mouse; conditions: cells cultured in osteogenic medium for 7 days, incubated with rainbow beads
Experimental: Mouse MSCs were purchased from Invitrogen (Cat#S1502-100), cultured in osteogenic medium for 7 days and incubated with rainbow beads for one hour. […] Original magnification 10× on the right and 20× on the left of the top panel.
A new color-encoding method that facilitates high-throughput screening of OBOC combinatorial libraries was developed. This method differs from the traditional methods used to monitor integrin expressions in the MSCs, i.e., the use of antibody-based fluorescence-activated cell sorting (FACS) or immunoblotting. In the present method, polymer beads displaying chemical compounds or families of compounds were stained with oil-based organic dyes that are used as coding tags. […] These rainbow beads were prepared in a multiplex manner such that each ligand reacted to one or a series of integrins that were coded one color, See FIG. 7 (Luo, J., et al., J Comb Chem, 2008, 10(4): p. 599-604). This rainbow bead technique was then applied to determine the integrin profile on the cell surfaces.
In FIG. 7, bone marrow cells were cultured in osteogenic medium for 7 days and incubated with rainbow beads. The purple beads that coded with LLP2A, the ligand with high affinity and specificity against α4β1, were covered with layers of cells identified by green arrows. […]

[6] = target: integrin α4β1 (Homo sapiens, UniProt P05556+P13612); conditions: cited from earlier work
Sequence of integrin α4β1 (P13612 34-1032): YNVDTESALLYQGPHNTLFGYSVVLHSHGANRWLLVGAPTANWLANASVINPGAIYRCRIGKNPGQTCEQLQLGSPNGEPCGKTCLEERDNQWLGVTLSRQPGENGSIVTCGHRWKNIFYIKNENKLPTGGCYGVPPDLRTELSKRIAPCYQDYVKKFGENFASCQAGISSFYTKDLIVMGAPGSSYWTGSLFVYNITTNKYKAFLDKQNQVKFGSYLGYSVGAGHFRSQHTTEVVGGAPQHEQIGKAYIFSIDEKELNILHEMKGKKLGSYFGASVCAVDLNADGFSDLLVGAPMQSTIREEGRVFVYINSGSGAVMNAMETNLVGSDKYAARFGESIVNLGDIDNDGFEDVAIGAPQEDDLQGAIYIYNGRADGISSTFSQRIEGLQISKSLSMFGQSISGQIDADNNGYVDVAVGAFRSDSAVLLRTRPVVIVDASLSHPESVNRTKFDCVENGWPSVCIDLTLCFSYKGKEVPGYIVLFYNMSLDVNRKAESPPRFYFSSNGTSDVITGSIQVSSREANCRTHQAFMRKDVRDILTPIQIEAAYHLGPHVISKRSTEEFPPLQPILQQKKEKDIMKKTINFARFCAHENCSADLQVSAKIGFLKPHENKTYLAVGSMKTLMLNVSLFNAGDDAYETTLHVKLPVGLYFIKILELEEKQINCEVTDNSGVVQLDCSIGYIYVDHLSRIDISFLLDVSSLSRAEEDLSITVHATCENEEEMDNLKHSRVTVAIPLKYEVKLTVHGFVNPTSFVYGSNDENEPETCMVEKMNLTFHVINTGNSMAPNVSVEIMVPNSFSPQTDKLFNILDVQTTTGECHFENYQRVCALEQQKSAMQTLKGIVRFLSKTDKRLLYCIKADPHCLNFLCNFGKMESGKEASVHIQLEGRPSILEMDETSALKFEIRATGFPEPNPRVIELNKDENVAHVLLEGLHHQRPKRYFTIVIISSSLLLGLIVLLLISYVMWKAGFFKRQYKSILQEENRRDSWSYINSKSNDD
Sequence of integrin α4β1 (P05556 21-798): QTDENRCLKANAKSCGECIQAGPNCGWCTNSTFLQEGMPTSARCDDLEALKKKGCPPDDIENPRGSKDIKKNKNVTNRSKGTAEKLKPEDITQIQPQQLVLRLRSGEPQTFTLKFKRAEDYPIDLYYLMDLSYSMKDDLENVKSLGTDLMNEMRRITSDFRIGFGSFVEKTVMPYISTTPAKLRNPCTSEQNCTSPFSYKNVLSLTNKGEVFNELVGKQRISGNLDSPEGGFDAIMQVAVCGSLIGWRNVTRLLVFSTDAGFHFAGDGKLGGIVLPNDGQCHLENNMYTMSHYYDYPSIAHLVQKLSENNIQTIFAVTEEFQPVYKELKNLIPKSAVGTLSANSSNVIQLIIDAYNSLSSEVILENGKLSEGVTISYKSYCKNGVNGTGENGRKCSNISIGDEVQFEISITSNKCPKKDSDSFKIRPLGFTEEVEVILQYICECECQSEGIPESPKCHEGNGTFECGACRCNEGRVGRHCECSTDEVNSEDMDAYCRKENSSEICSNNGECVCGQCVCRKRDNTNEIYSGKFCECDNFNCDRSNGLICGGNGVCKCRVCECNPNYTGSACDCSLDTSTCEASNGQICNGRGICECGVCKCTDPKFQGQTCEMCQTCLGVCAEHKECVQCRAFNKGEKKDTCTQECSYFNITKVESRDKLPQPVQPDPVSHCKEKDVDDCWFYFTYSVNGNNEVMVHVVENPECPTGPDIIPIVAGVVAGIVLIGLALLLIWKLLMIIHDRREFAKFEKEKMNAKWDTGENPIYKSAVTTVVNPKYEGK

## NCCCC(O)(P(=O)(O)O)P(=O)(O)O [Ale, Alendronate, reference compound]
[1]
  maximum stress: not significantly altered
[1]; mid-femur
  cortical bone thickness: not significantly altered

## LLP2A-Alendronate (1) [LLP2A-Ale (1)]
[2]; lumbar vertebral bodies, three days
  location of transplanted MSCs (anti-GFP staining): observed within bone marrow and adjacent to the trabecular bone surfaces
[2]; three days
  osteocalcin levels: significantly increased
[2]; three weeks
  osteocalcin levels: significantly increased

## LLP2A: bisaryl urea peptidomimetic, highly potent and selective ligand for the activated form of α4β1 integrin [reference compound]
[1]
  maximum stress: not significantly altered
[1]; mid-femur
  cortical bone thickness: not significantly altered
[3]
  cancellous bone volume, BV/TV: 10.5±0.5%
[4]; four weeks after injections
  bone formation rate at endocortical and periosteal surfaces of the mid-femurs: significantly increased
[4]; two days after i.v. injection, lumbar vertebral sections
  proliferating cell populations (BrdU): increased the number of proliferating cell populations within the marrow cavity
[5]
  cell binding to ligand-coded rainbow beads (affinity): high affinity
[6]
  IC50: 2 pM

B1: PTH: PTH, comparator treatment given for four weeks in OVX mice (peptide, UniProt P01270 32-115, looked up)
Parathyroid hormone: SVSEIQLMHNLGKHLNSMERVEWLRKKLQDVHNFVALGAPLAPRDAGSQRPRKKEDNVLVESHEKSLGEADKADVNVLTKAKSQ
modifications: Parathyroid hormone
[1]
  maximum stress: not significantly altered
[1]; mid-femur, vs OVX
  endocortical bone formation: increases
[1]; mid-femur
  cortical bone thickness: not significantly altered
